Test results taken from patent US8680139B2 (Progenra, priority 2009, dated 2014).
pEC50: −log10 of the molar value.

Molecular target: T1, USP7 (Homo sapiens, UniProt Q93009)
T1 construct: full length human USP7 protein; made in house
Test: USP7, Ub-PLA2 assay
Type: biochemical
Conditions: Ub-PLA2 / NBD C6-HPC fluorescence, 30 minute preincubation; read-out: EC50 for inhibition of USP7
Outline: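 Activity read as fluorescence in a Ub-PLA2 format, with percent inhibition calculated within each plate against DMSO (uninhibited) and NEM (background) wells. Vehicle was 100% DMSO.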

T1 sequence (Q93009 whole entry): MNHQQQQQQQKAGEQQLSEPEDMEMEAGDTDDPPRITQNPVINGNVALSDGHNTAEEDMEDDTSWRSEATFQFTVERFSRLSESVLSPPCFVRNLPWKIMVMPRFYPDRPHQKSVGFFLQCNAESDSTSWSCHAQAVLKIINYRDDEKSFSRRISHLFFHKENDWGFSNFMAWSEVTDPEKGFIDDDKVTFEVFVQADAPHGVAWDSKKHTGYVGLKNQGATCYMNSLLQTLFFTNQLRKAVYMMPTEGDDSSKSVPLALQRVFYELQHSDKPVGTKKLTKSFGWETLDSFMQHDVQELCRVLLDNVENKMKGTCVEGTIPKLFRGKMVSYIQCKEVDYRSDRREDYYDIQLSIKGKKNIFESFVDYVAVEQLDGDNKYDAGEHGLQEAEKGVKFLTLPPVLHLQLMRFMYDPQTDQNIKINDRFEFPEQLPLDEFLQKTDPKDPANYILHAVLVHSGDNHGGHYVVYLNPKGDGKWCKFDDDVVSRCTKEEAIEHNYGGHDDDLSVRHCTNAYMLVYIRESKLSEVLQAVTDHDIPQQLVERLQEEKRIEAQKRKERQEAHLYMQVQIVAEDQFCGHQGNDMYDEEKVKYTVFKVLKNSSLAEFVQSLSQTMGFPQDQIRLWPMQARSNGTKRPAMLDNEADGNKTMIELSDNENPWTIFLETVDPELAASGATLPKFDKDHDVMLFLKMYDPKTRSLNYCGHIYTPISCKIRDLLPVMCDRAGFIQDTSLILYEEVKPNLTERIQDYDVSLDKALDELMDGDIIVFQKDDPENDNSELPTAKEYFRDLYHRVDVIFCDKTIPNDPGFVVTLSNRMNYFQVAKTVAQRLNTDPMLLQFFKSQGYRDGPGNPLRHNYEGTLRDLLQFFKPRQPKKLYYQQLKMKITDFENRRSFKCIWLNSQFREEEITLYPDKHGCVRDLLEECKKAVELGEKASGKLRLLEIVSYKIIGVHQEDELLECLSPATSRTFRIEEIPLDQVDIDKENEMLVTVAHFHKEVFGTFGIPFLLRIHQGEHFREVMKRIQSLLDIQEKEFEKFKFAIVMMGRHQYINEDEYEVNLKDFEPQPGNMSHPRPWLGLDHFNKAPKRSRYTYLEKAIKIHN

In the case of `O=C(NCc1ccco1)c1cc([N+](=O)[O-])c(Sc2c(Cl)cncc2Cl)s1` [Example 52, 5-((3,5-dichloropyridin-4-yl)thio)-N-(furan-2-ylmethyl)-4-nitrothiophene-2-carboxamide], the pEC50 was 5.00 to 6.00.

For `O=C(NCc1cccc(F)c1)c1cc([N+](=O)[O-])c(Sc2c(Cl)cncc2Cl)s1` [Example 128, 5-((3,5-dichloropyridin-4-yl)thio)-N-(3-fluorobenzyl)-4-nitrothiophene-2-carboxamide], the pEC50 was ≥ 6.00.

For `CC(C)N1CCC(NC(=O)c2cc([N+](=O)[O-])c(Oc3c(Cl)cncc3Cl)s2)CC1` [Example 260, 5-((3,5-dichloropyridin-4-yl)oxy)-N-(1-isopropylpiperidin-4-yl)-4-nitrothiophene-2-carboxamide], the pEC50 was < 5.00.

For `CC1(C)CC(NC(=O)c2cc([N+](=O)[O-])c(Sc3c(Cl)cncc3Cl)s2)CC(C)(C)N1` [Example 178, 5-((3,5-dichloropyridin-4-yl)thio)-4-nitro-N-(2,2,6,6-tetramethylpiperidin-4-yl)thiophene-2-carboxamide], the pEC50 was ≥ 6.00.

`O=C(NCCCc1ccccn1)c1cc([N+](=O)[O-])c(Sc2c(Cl)cncc2Cl)s1` [Example 115, 5-((3,5-dichloropyridin-4-yl)thio)-4-nitro-N-(3-(pyridin-2-yl)propyl)thiophene-2-carboxamide] was tested, and the pEC50 was ≥ 6.00.

`CCN1C[C@H](NC(=O)c2cc([N+](=O)[O-])c(Sc3c(Cl)cncc3Cl)s2)[C@@H](OC)C1` [Example 92, 5-((3,5-dichloropyridin-4-yl)thio)-N-((3S,4S)-1-ethyl-4-methoxypyrrolidin-3-yl)-4-nitrothiophene-2-carboxamide] gave a pEC50 of 5.00 to 6.00.

With `O=C(NCCCN1CCCC1)c1cc([N+](=O)[O-])c(Sc2c(Cl)cncc2Cl)s1` [Example 191, 5-((3,5-dichloropyridin-4-yl)thio)-4-nitro-N-(3-(pyrrolidin-1-yl)propyl)thiophene-2-carboxamide] the pEC50 was ≥ 6.00.

For `CN(C)CCNC(=O)c1cc([N+](=O)[O-])c(Sc2c(Cl)cncc2Cl)s1` [Example 48, 5-[(3,5-dichloro-4-pyridyl)sulfanyl]-N-(2-dimethylaminoethyl)-4-nitro-thiophene-2-carboxamide], the pEC50 was 5.00 to 6.00.

For `O=C(NCc1ccc(OC(F)(F)F)cc1)c1cc([N+](=O)[O-])c(Sc2c(Cl)cncc2Cl)s1` [Example 114, 5-((3,5-dichloropyridin-4-yl)thio)-4-nitro-N-(4-(trifluoromethoxy)benzyl)thiophene-2-carboxamide], the pEC50 was ≥ 6.00.

Work on `Cc1csc(NC(=O)c2cc([N+](=O)[O-])c(Sc3c(Cl)cncc3Cl)s2)n1` [Example 87, 5-((3,5-dichloropyridin-4-yl)thio)-N-(4-methylthiazol-2-yl)-4-nitrothiophene-2-carboxamide] yielded a pEC50 of 5.00 to 6.00.

For `O=C(NCCCN1CCC(CO)CC1)c1cc([N+](=O)[O-])c(Sc2c(Cl)cncc2Cl)s1` [Example 227, 5-((3,5-dichloropyridin-4-yl)thio)-N-(3-(4-(hydroxymethyl)piperidin-1-yl)propyl)-4-nitrothiophene-2-carboxamide], the pEC50 was ≥ 6.00.

`CN1CCC(NC(=O)c2cc([N+](=O)[O-])c(Oc3c(Cl)cccc3Cl)s2)CC1` [Example 261, 5-(2,6-dichlorophenoxy)-N-(1-methylpiperidin-4-yl)-4-nitrothiophene-2-carboxamide] was tested, and the pEC50 was < 5.00.

In the case of `O=C(NCc1cccc(OC(F)(F)F)c1)c1cc([N+](=O)[O-])c(Sc2c(Cl)cncc2Cl)s1` [Example 68, 5-((3,5-dichloropyridin-4-yl)thio)-4-nitro-N-(3-(trifluoromethoxy)benzyl)thiophene-2-carboxamide], the pEC50 was 5.00 to 6.00.

In the case of `COCCCNC(=O)c1cc([N+](=O)[O-])c(Sc2c(Cl)cncc2Cl)s1` [Example 119, 5-((3,5-dichloropyridin-4-yl)thio)-N-(3-methoxypropyl)-4-nitrothiophene-2-carboxamide], the pEC50 was ≥ 6.00.

In the case of `O=C(NCCCN1CCCC1=O)c1cc([N+](=O)[O-])c(Sc2c(Cl)cncc2Cl)s1` [Example 104, 5-((3,5-dichloropyridin-4-yl)thio)-4-nitro-N-(3-(2-oxopyrrolidin-1-yl)propyl)thiophene-2-carboxamide], the pEC50 was ≥ 6.00.

In the case of `CCOc1cccc(CNC(=O)c2cc([N+](=O)[O-])c(Sc3c(Cl)cncc3Cl)s2)c1` [Example 149, 5-((3,5-dichloropyridin-4-yl)thio)-N-(3-ethoxybenzyl)-4-nitrothiophene-2-carboxamide], the pEC50 was ≥ 6.00.

With `CNC(=O)c1cc([N+](=O)[O-])c(Sc2cccc(Cl)c2Cl)s1` [Example 42, 5-(2,3-dichlorophenylsulfanyl)-N-methyl-4-nitrothiophene-2-carboxamide] the pEC50 was 5.00 to 6.00.

`O=C(NCCN1CCN(Cc2ccccc2)CC1)c1cc([N+](=O)[O-])c(Sc2c(Cl)cncc2Cl)s1` [Example 117, N-(2-(4-benzylpiperazin-1-yl)ethyl)-5-((3,5-dichloropyridin-4-yl)thio)-4-nitrothiophene-2-carboxamide] was tested, and the pEC50 was ≥ 6.00.

Work on `O=C(CNC(=O)c1cc([N+](=O)[O-])c(Sc2c(Cl)cncc2Cl)s1)NCC(F)F` [Example 219, 5-((3,5-dichloropyridin-4-yl)thio)-N-(2-((2,2-difluoroethyl)amino)-2-oxoethyl)-4-nitrothiophene-2-carboxamide] yielded a pEC50 of 5.00 to 6.00.

With `O=C(Nc1ccc(Br)cc1)c1cc([N+](=O)[O-])c(Sc2c(Cl)cncc2Cl)s1` [Example 152, N-(4-bromophenyl)-5-((3,5-dichloropyridin-4-yl)thio)-4-nitrothiophene-2-carboxamide] the pEC50 was ≥ 6.00.

Work on `O=C(O)CNC(=O)c1cc([N+](=O)[O-])c(Sc2c(Cl)cncc2Cl)s1` [Example 210, 2-(5-((3,5-dichloropyridin-4-yl)thio)-4-nitrothiophene-2-carboxamido)acetic acid] yielded a pEC50 of 5.00 to 6.00.

`O=C(NCCc1ccccn1)c1cc([N+](=O)[O-])c(Sc2c(Cl)cncc2Cl)s1` [Example 109, 5-((3,5-dichloropyridin-4-yl)thio)-4-nitro-N-(2-(pyridin-2-yl)ethyl)thiophene-2-carboxamide] was tested, and the pEC50 was ≥ 6.00.

With `CN1CCC(NC(=O)c2cc([N+](=O)[O-])c(Oc3c(Cl)cncc3Cl)s2)CC1` [Example 259, 5-((3,5-dichloropyridin-4-yl)oxy)-N-(1-methylpiperidin-4-yl)-4-nitrothiophene-2-carboxamide] the pEC50 was < 5.00.

With `O=C(NCc1ccc(Cl)cc1)c1cc([N+](=O)[O-])c(Sc2c(Cl)cncc2Cl)s1` [Example 106, N-(4-chlorobenzyl)-5-((3,5-dichloropyridin-4-yl)thio)-4-nitrothiophene-2-carboxamide] the pEC50 was ≥ 6.00.

`O=C(NCc1ccc(Cl)nc1)c1cc([N+](=O)[O-])c(Sc2c(Cl)cncc2Cl)s1` [Example 162, N-((6-chloropyridin-3-yl)methyl)-5-((3,5-dichloropyridin-4-yl)thio)-4-nitrothiophene-2-carboxamide] was tested, and the pEC50 was ≥ 6.00.

`CC(=O)c1cc([N+](=O)[O-])c(Sc2cccc(Cl)c2)s1` [Example 6, 1-[5-(3-Chlorophenylsulfanyl)-4-nitro-2-thienyl]ethanone] gave a pEC50 of 5.00 to 6.00.

With `CC(c1cc([N+](=O)[O-])c(Sc2ccc(Cl)cc2Cl)s1)N(C)C` (stereo not shown) [Example 29, 1-[5-(2,4-dichlorophenyl)sulfanyl-4-nitro-2-thienyl]-N,N-dimethyl-ethanamine] the pEC50 was < 5.00.

With `O=C(c1cc([N+](=O)[O-])c(Sc2c(Cl)cncc2Cl)s1)N1CCC(CO)CC1` [Example 73, (5-((3,5-dichloropyridin-4-yl)thio)-4-nitrothiophen-2-yl)(4-(hydroxymethyl)piperidin-1-yl)methanone] the pEC50 was 5.00 to 6.00.

`N#Cc1cc(C(=O)Nc2cnc3ccccc3c2)sc1Sc1c(Cl)cncc1Cl` [Example 207, 4-cyano-5-((3,5-dichloropyridin-4-yl)thio)-N-(quinolin-3-yl)thiophene-2-carboxamide] was tested, and the pEC50 was 5.00 to 6.00.

For `O=C(Nc1ccccc1Cl)c1cc([N+](=O)[O-])c(Sc2c(Cl)cncc2Cl)s1` [Example 134, N-(2-chlorophenyl)-5-((3,5-dichloropyridin-4-yl)thio)-4-nitrothiophene-2-carboxamide], the pEC50 was ≥ 6.00.

For `O=C(NCCCN1CCC(O)CC1)c1cc([N+](=O)[O-])c(Sc2c(Cl)cncc2Cl)s1` [Example 225, 5-((3,5-dichloropyridin-4-yl)thio)-N-(3-(4-hydroxypiperidin-1-yl)propyl)-4-nitrothiophene-2-carboxamide], the pEC50 was ≥ 6.00.

`CC(=O)c1cc([N+](=O)[O-])c(Sc2nccn2C)s1` [Example 15, 1-[5-(1-methylimidazol-2-yl)sulfanyl-4-nitro-2-thienyl]ethanone] was tested, and the pEC50 was 5.00 to 6.00.

`CN1CCN(c2ccc(NC(=O)c3cc([N+](=O)[O-])c(Sc4c(Cl)cncc4Cl)s3)cc2)CC1` [Example 79, 5-((3,5-dichloropyridin-4-yl)thio)-N-(4-(4-methylpiperazin-1-yl)phenyl)-4-nitrothiophene-2-carboxamide] was tested, and the pEC50 was 5.00 to 6.00.

For `O=C(NCC(O)CN1CCCCC1)c1cc([N+](=O)[O-])c(Sc2c(Cl)cncc2Cl)s1` (stereo not shown) [Example 241, 5-((3,5-dichloropyridin-4-yl)thio)-N-(2-hydroxy-3-(piperidin-1-yl)propyl)-4-nitrothiophene-2-carboxamide], the pEC50 was 5.00 to 6.00.

`CCN1CCC(CNC(=O)c2cc([N+](=O)[O-])c(Sc3c(Cl)cncc3Cl)s2)C1` (stereo not shown) [Example 91, 5-((3,5-dichloropyridin-4-yl)thio)-N-((1-ethylpyrrolidin-3-yl)methyl)-4-nitrothiophene-2-carboxamide] showed a pEC50 of 5.00 to 6.00.

`CSc1cccc(CN(C)C(=O)c2cc([N+](=O)[O-])c(Sc3c(Cl)cncc3Cl)s2)c1` [Example 127, 5-((3,5-dichloropyridin-4-yl)thio)-N-methyl-N-(3-(methylthio)benzyl)-4-nitrothiophene-2-carboxamide] was tested, and the pEC50 was ≥ 6.00.

With `COc1ccc(NC(=O)c2cc([N+](=O)[O-])c(Sc3c(Cl)cncc3Cl)s2)cc1OC` [Example 170, 5-((3,5-dichloropyridin-4-yl)thio)-4-nitro-N-(3,4-dimethoxyphenyl)thiophene-2-carboxamide] the pEC50 was ≥ 6.00.
